Experimental data published in the supplement of paper PMC11061612.

How the values were obtained:
[1] = compound: CS(=O)(=O)CCNCc1ccc(-c2ccc3ncnc(Nc4ccc(OCc5cccc(F)c5)c(Cl)c4)c3c2)o1 [Lapatinib]; conditions: max 10 µM
Method in brief: (§1)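 Viability was measured with CellTiter-Glo 2.0 luminescence after 72 hours of dosing at a final DMSO of typically 0.2%, and scaled between blank-well and DMSO-well means. Beforehand, cancer cell lines sat 24 hours at 37°C and 5% CO2 in 1536-well plates in 7.5 μl DMEM/F12 or RPMI with 10% FBS. A non-linear mixed effects model fitted two-parameter logistic curves to the dose responses. The single-agent IC50 comes from these fits.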

[2] = compound: COc1cccc(OCCCN)c1-c1cc(Nc2cnc(C#N)cn2)n[nH]1 [Prexasertib]; conditions: max 1 µM
Method in brief: as §1

[3] = compound: CC(C)n1c(=O)n(C)c2cnc3cc(F)c(-c4ccc(OCCCN5CCCCC5)nc4)cc3c21 [AZD1390]; conditions: max 0.3 µM
Method in brief: as §1

[4] = compound: C[C@@H](Oc1cc(-c2cnn(C3CCNCC3)c2)cnc1N)c1c(Cl)ccc(F)c1Cl [Crizotinib]; conditions: max 10 µM
Method in brief: as §1

[5] = compound: C[C@@H]1COCCN1C2=NC(=NC(=C2)C3(CC3)[S@](=N)(=O)C)C4=C5C=CNC5=NC=C4 [AZD6738]; conditions: max 10 µM
Method in brief: as §1

[6] = compound: CN(CC[C@H](CSC1=CC=CC=C1)NC2=C(C=C(C=C2)S(=O)(=O)NC(=O)C3=CC=C(C=C3)N4CCC(CC4)[C@H](C5=CC=CC=C5C6=CC=C(C=C6)Cl)O)S(=O)(=O)C(F)(F)F)CCO [AZD4320]; conditions: max 1 µM
Method in brief: as §1

[7] = compound: O=C(c1cc(Cc2n[nH]c(=O)c3ccccc23)ccc1F)N1CCN(C(=O)C2CC2)CC1 [Olaparib]; conditions: max 10 µM
Method in brief: as §1

[8] = compound: C1CC(C1)(C(=O)[O-])C(=O)[O-].N.N.[Pt+2] [Carboplatin]; conditions: max 10 µM
Method in brief: as §1

[9] = compound: CC1=C(C(=CC=C1)Cl)NC(=O)C2=CN=C(S2)NC3=CC(=NC(=N3)C)N4CCN(CC4)CCO [Dasatinib]; conditions: max 2 µM
Method in brief: as §1

[10] = compound: CN(C)CCCOc1ccc(-c2ccc3ncc4c(c3c2)n(C2CCOCC2)c(=O)n4C)cn1 [AZD0156]; conditions: max 3 µM
Method in brief: as §1

[11] = compound: NC1(c2ccc(-c3nc4ccn5c(=O)[nH]nc5c4cc3-c3ccccc3)cc2)CCC1 [MK-2206]; conditions: max 10 µM
Method in brief: as §1

[12] = compound: C=CCn1c(=O)c2cnc(Nc3ccc(N4CCN(C)CC4)cc3)nc2n1-c1cccc(C(C)(C)O)n1 [AZD1775]; conditions: max 3 µM
Method in brief: as §1

[13] = compound: Cc1c2c(nn1C)CSCc1cc(n(C)n1)CSc1cc(c3ccccc3c1)OCCCc1c(C(=O)O)n(C)c3c-2c(Cl)ccc13 [AZD5991]; conditions: max 1 µM
Method in brief: as §1

[14] = compound: CC(=O)O[C@H]1C(=O)[C@@]2(C)[C@H]([C@H](OC(=O)c3ccccc3)[C@]3(O)C[C@H](OC(=O)[C@H](O)[C@@H](NC(=O)c4ccccc4)c4ccccc4)C(C)=C1C3(C)C)[C@]1(OC(C)=O)CO[C@@H]1C[C@@H]2O [Paclitaxel]; conditions: max 3 µM
Method in brief: as §1

[15] = compound: CCc1c2c(nc3ccc(O)cc13)-c1cc3c(c(=O)n1C2)COC(=O)[C@]3(O)CC [SN-38]; conditions: max 0.3 µM
Method in brief: as §1

[16] = compound: C[C@@H](Nc1cc(F)cc(F)c1)c1cc(C(=O)N(C)C)cc2c(=O)cc(N3CCOCC3)oc12 [AZD8186]; conditions: max 10 µM
Method in brief: as §1

[17] = compound: CCN(CCO)CCCOc1ccc2c(Nc3cc(CC(=O)Nc4cccc(F)c4)[nH]n3)ncnc2c1 [AZD2811]; conditions: max 1 µM
Method in brief: as §1

[18] = compound: Cc1nc(-c2cn3c(n2)-c2ccc(-c4cnn(C(C)(C)C(N)=O)c4)cc2OCC3)n(C(C)C)n1 [Taselisib]; conditions: max 10 µM
Method in brief: as §1

[19] = compound: Cn1cnc2c(F)c(Nc3ccc(Br)cc3Cl)c(C(=O)NOCCO)cc21 [Selumetinib]; conditions: max 10 µM
Method in brief: as §1

[20] = compound: N#Cc1cnc(Nc2cc(NC[C@H]3CNCCO3)c(C(F)(F)F)cn2)cn1 [SRA737]; conditions: max 10 µM
Method in brief: as §1

[21] = compound: COc1cc2ncnc(Nc3ccc(F)c(Cl)c3)c2cc1OCCCN1CCOCC1 [Gefitinib]; conditions: max 10 µM
Method in brief: as §1

[22] = compound: CC1(C)CCC(CN2CCN(c3ccc(C(=O)NS(=O)(=O)c4ccc(NCC5CCOCC5)c([N+](=O)[O-])c4)c(Oc4cnc5[nH]ccc5c4)c3)CC2)=C(c2ccc(Cl)cc2)C1 [Venetoclax]; conditions: max 1 µM
Method in brief: as §1

[23] = compound: C[C@@H](c1ccc2nccn2c1)n1nnc2ncc(-c3cnn(C)c3)nc21 [Savolitinib]; conditions: max 1 µM
Method in brief: as §1

[24] = compound: COc1cc([C@@H]2c3cc4c(cc3[C@@H](O[C@@H]3O[C@@H]5CO[C@@H](C)O[C@H]5[C@H](O)[C@H]3O)[C@H]3COC(=O)[C@H]23)OCO4)cc(OC)c1O [Etoposide]; conditions: max 10 µM
Method in brief: as §1

[25] = compound: CC(=O)Nc1cccc(-n2c(=O)n(C3CC3)c(=O)c3c(Nc4ccc(I)cc4F)n(C)c(=O)c(C)c32)c1 [Trametinib]; conditions: max 1 µM
Method in brief: as §1

[26] = compound: Nc1ccn([C@@H]2O[C@H](CO)[C@@H](O)C2(F)F)c(=O)n1 [Gemcitabine]; conditions: max 0.3 µM
Method in brief: as §1

[27] = compound: O=c1[nH]cc(F)c(=O)[nH]1 [5-Fluorouracil]; conditions: max 20 µM
Method in brief: as §1

[28] = compound: COc1nnc2ccc(N3CCC(c4ccc(OCCN5CCN(C)C(=O)[C@H]5C)cc4)CC3)nn12 [AZD5153]; conditions: max 1 µM
Method in brief: as §1

[29] = compound: Cc1cc2ncnn2cc1Nc1ncc2c(n1)n(C1CCOCC1)c(=O)n2C [AZD7648]; conditions: max 10 µM
Method in brief: as §1

[30] = compound: CC1=CN2[C@@H](C1)C=NC3=CC(=C(C=C3C2=O)OC)OCCCCCOC4=C(C=C5C(=C4)N=C[C@@H]6CC(=CN6C5=O)C)OC [SG3199]; conditions: max 0.001 µM
Method in brief: as §1

[31] = compound: CC(=O)c1c(C)c2cnc(Nc3ccc(N4CCNCC4)cn3)nc2n(C2CCCC2)c1=O [Palbociclib]; conditions: max 10 µM
Method in brief: as §1

[32] = compound: C1CN(CCC1(C(=O)N[C@@H](CCO)C2=CC=C(C=C2)Cl)N)C3=NC=NC4=C3C=CN4 [AZD5363]; conditions: max 10 µM
Method in brief: as §1

[33] = compound: COc1cccc2c1C(=O)c1c(O)c3c(c(O)c1C2=O)C[C@@](O)(C(=O)CO)C[C@@H]3O[C@H]1C[C@H](N)[C@H](O)[C@H](C)O1 [Doxorubicin]; conditions: max 1 µM
Method in brief: as §1

[34] = compound: COc1cc(Nc2ncc3c(n2)-c2ccc(Cl)cc2C(c2c(F)cccc2OC)=NC3)ccc1C(=O)O [Alisertib]; conditions: max 10 µM
Method in brief: as §1

[35] = compound: O=C(Nc1ccc2[nH]nc(-c3ccncc3)c2c1)[C@@H]1CCN(CC(=O)N2CCN(c3ccc(-c4ncccn4)cc3)CC2)C1; conditions: max 5 µM
Method in brief: as §1

Row | Cell Line | IC50, cell viability 72 h [1] | IC50, cell viability 72 h [2] | IC50, cell viability 72 h [3] | IC50, cell viability 72 h [4] | IC50, cell viability 72 h [5] | IC50, cell viability 72 h [6] | IC50, cell viability 72 h [7] | IC50, cell viability 72 h [8] | IC50, cell viability 72 h [9] | IC50, cell viability 72 h [10] | IC50, cell viability 72 h [11] | IC50, cell viability 72 h [12] | IC50, cell viability 72 h [13] | IC50, cell viability 72 h [14] | IC50, cell viability 72 h [15] | IC50, cell viability 72 h [16] | IC50, cell viability 72 h [17] | IC50, cell viability 72 h [18] | IC50, cell viability 72 h [19] | IC50, cell viability 72 h [20] | IC50, cell viability 72 h [21] | IC50, cell viability 72 h [22] | IC50, cell viability 72 h [23] | IC50, cell viability 72 h [24] | IC50, cell viability 72 h [25] | IC50, cell viability 72 h [26] | IC50, cell viability 72 h [27] | IC50, cell viability 72 h [28] | IC50, cell viability 72 h [29] | IC50, cell viability 72 h [30] | IC50, cell viability 72 h [31] | IC50, cell viability 72 h [32] | IC50, cell viability 72 h [33] | IC50, cell viability 72 h [34] | IC50, cell viability 72 h [35]
1 | HOS (Osteosarcoma) | > 10000 nM | 53.6 nM | > 300 nM | > 10000 nM | 8430 nM | > 1000 nM | > 10000 nM | > 10000 nM | > 2000 nM | > 3000 nM | > 10000 nM | 1030 nM | > 1000 nM | 97.2 nM | 29.4 nM | > 10000 nM | > 1000 nM | > 10000 nM | > 10000 nM | > 10000 nM | > 10000 nM | > 1000 nM | > 1000 nM | 4340 nM | > 1000 nM | > 300 nM | > 20000 nM | 996 nM | > 10000 nM | > 1 nM | > 10000 nM | > 10000 nM | 792 nM | > 10000 nM | > 5000 nM
2 | NCI-H2085 (Non-Small Cell Lung Carcinoma) | > 10000 nM | 67.3 nM | > 300 nM | > 10000 nM | > 10000 nM | > 1000 nM | > 10000 nM | > 10000 nM | 152 nM | > 3000 nM | > 10000 nM | 3000 nM | > 1000 nM | 382 nM | > 300 nM | 3580 nM | > 1000 nM | > 10000 nM | > 10000 nM | > 10000 nM | > 10000 nM | > 1000 nM | > 1000 nM | > 10000 nM | > 1000 nM | > 300 nM | > 20000 nM | > 1000 nM | > 10000 nM | > 1 nM | > 10000 nM | > 10000 nM | > 1000 nM | 8070 nM | > 5000 nM
3 | Hs-578-T (Breast Carcinoma) | > 10000 nM | 12.3 nM | > 300 nM | > 10000 nM | 1810 nM | > 1000 nM | > 10000 nM | > 10000 nM | 66.8 nM | > 3000 nM | 5650 nM | 394 nM | > 1000 nM | < 3 nM | > 300 nM | 1710 nM | 435 nM | 2190 nM | > 10000 nM | > 10000 nM | > 10000 nM | > 1000 nM | > 1000 nM | > 10000 nM | > 1000 nM | > 300 nM | > 20000 nM | 156 nM | > 10000 nM | > 1 nM | > 10000 nM | 2370 nM | 300 nM | 3970 nM | > 5000 nM
4 | KELLY (Neuroblastoma) | 7360 nM | 1.18 nM | > 300 nM | 1980 nM | 1530 nM | > 1000 nM | > 10000 nM | > 10000 nM | > 2000 nM | > 3000 nM | > 10000 nM | 64.5 nM | 378 nM | 10.8 nM | 7.25 nM | > 10000 nM | 333 nM | > 10000 nM | > 10000 nM | 199 nM | > 10000 nM | 204 nM | > 1000 nM | 2530 nM | > 1000 nM | 3.87 nM | 12600 nM | > 1000 nM | > 10000 nM | > 1 nM | > 10000 nM | > 10000 nM | 142 nM | 237 nM | > 5000 nM
